According to publication PMC7286788 (ACS infectious diseases, 2019):
Read-outs that look alike come from different tables or passages of the source.

Key:
[1] = molecular target: T1, HyMurG (Hydrogenivirga sp. 128-5-R1-1, UniProt A8US35); test: UV-Vis-based MurG assay; type: biochemical; conditions: for Inhibition of MurG function / lipid II formation: 50–100 μM; for inhibition at 10 µM / inhibition at 50 µM / inhibition at 100 µM: read-out: HthermMurG inhibition (%)
[2] = molecular target: T2, MsmegMurG (Mycolicibacterium smegmatis, UniProt A0R016); test: biochemical; set-up: species or system Mycobacterium smegmatis; conditions: read-out: (MsmegMurG) inhibition (%)
[3] = molecular target: T2, MsmegMurG; test: biochemical; set-up: species or system Mycobacterium smegmatis
[4] = molecular target: MsmegMraY (Mycolicibacterium smegmatis, UniProt A0R019); test: biochemical; type: biochemical, Mycobacterium smegmatis
[5] = molecular target: MraY/MurX (Mycolicibacterium smegmatis, UniProt A0R019); test: Substrate tolerance of MurX/MraY, P-60 of M. smegmatis; type: biochemical, Mycobacterium smegmatis; conditions: P-60 of wild-type M. smegmatis (ATCC607)
[6] = molecular target: T1, HyMurG; test: HPLC-based MurG assay, dose-response, HyMurG; type: biochemical; conditions: read-out: IC50 HyMurG; HPLC-based method; average of two-three experiments
[7] = system: M. smegmatis (ATCC607); test: MIC determination, resazurin, M. smegmatis; type: cell-based, Mycobacterium smegmatis; conditions: 7H9 with 0.5% tween 80, 3 days at 37 °C
[8] = system: M. tuberculosis (H37Rv); test: MIC determination, M. tuberculosis; type: cell-based, Mycobacterium tuberculosis; conditions: 7H9 containing OADC; 14 days
[9] = system: M. smegmatis (ATCC607) and M. tuberculosis (H37Rv); test: Antimycobacterial activity, text summary for both species; type: cell-based, Mycobacterium spp.; conditions: 50 μg/mL
[10] = system: Vero cell
[11] = in vitro; conditions: African green monkey
[12] = system: HyMraY; test: Kinetic studies with HyMraY; type: biochemical, Hydrogenivirga sp.
[13] = molecular target: MurG, P-60 (M. smegmatis) (Mycolicibacterium smegmatis, UniProt A0R016); test: Competition reaction of UDP-GlcN-C6-FITC; type: biochemical, Mycobacterium smegmatis
[14] = molecular target: T1, HyMurG; test: Kinetic studies with HyMurG; type: biochemical; conditions: ristocetin A 5 μM; Michaelis-Menten plots
[15] = cited from earlier work
[16] = read-out: IC50 MsmegMurG, HPLC-based method, average of two-three experiments
[17] = read-out: IC50 MsmegMraY, HPLC-based method, average of two-three experiments

T2 sequence (A0R016 whole entry): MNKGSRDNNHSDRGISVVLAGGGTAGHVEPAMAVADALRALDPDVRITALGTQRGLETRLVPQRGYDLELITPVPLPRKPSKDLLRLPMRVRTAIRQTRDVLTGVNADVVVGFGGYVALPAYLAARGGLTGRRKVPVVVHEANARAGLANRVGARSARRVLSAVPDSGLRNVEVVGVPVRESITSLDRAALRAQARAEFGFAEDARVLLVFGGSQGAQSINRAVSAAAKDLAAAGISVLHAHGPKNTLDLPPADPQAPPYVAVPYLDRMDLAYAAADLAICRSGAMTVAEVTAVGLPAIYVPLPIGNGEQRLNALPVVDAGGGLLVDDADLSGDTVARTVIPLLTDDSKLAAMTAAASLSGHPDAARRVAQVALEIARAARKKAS
Chain of MsmegMraY (A0R019 whole entry): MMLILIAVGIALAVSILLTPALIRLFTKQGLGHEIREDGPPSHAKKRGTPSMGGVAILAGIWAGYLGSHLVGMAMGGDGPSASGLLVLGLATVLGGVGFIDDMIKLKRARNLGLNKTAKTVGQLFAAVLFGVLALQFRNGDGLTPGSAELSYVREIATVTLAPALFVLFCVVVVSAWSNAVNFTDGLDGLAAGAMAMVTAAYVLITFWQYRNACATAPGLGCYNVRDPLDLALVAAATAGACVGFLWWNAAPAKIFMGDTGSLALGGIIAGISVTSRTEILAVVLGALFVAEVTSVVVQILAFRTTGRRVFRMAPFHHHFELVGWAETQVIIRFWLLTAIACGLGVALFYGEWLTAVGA
T1 sequence (A8US35 1-350): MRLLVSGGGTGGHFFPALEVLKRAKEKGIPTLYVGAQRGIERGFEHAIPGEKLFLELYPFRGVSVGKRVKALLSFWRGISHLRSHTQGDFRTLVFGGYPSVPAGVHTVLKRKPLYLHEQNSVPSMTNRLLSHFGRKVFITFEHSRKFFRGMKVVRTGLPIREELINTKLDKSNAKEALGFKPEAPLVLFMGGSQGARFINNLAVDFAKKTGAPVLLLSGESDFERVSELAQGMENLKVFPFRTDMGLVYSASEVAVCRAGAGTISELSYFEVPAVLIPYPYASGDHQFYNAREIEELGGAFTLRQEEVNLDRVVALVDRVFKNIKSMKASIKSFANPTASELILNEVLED
Chain of MurG, P-60 (M. smegmatis) (A0R016 whole entry): as the sequence (A0R016 whole entry) above
Chain of MraY/MurX (A0R019 whole entry): as the sequence (A0R019 whole entry) above

For C=C(C/C=C(\C)CCC=C(C)C)CCC(C)(C)/C=C/CC/C(C)=C\CO[C@H](COP(=O)(O)O[C@H]1O[C@H](C(N)=O)[C@@](C)(O)[C@H](OC(N)=O)[C@H]1O[C@@H]1O[C@H](CO[C@@H]2O[C@H](CO)[C@@H](O)[C@H](O)[C@H]2O)[C@@H](O[C@@H]2O[C@H](C)[C@@H](O[C@@H]3O[C@H](C(=O)NC4=C(O)CCC4=O)[C@H](O)[C@H](O)[C@H]3O)[C@H](O)[C@H]2NC(C)=O)[C@H](O)[C@H]1NC(C)=O)C(=O)O [Moenomycin A, moenomycin A], the “Inhibition of MurG function / lipid II formation” value [1] was “did not inhibit”, the inhibition at 10 µM [1] was 0% and the inhibition at 50 µM [1] was 0%. It also gave an inhibition at 100 µM [1] of 12%, an inhibition at 10 µM [2] of 0% and an inhibition at 50 µM [2] of 0%. For the same compound, the inhibition at 100 µM [2] was 15%, the IC50 [3] was over 100 µM and the IC50 [4] was over 100 µM.

For C/C(=C/COP(=O)(O)O)CCCC(C)CCCC(C)CCCC(C)C (stereo not shown) [(2Z)-phytyl phosphate], the “Formation of lipid I-N^ε-derivatives” value [5] was “did not provide the corresponding lipid I derivatives”.

Work on NC(=O)OC[C@H](O)[C@@H](O)[C@H](N)C(=O)N[C@H](C(=O)O)[C@H]1O[C@@H](n2cc(C(=O)O)c(=O)[nH]c2=O)[C@H](O)[C@@H]1O [Polyoxin D, polyoxin D] yielded an IC50 [6] of 50.8 µM, an IC50 [3, 16] of 55 µM and an IC50 [4, 17] of over 100 µM. For the same compound, the “M. smegmatis (ATCC607) MIC” value [7] was over 50.0 µg/mL, the “M. tuberculosis (H37Rv) MIC” value [8] was over 50.0 µg/mL and the “Growth inhibition of M. smegmatis and M. tuberculosis” value [9] was “did not inhibit growth”. For the same compound, the “Vero cell cytotoxicity IC50” value [10] was over 100 µg/mL.

For CO[C@H]1/C=C/O[C@@]2(C)Oc3c(C)c(O)c4c(O)c(c(/C=N/N5CCN(C)CC5)c(O)c4c3C2=O)NC(=O)/C(C)=C\C=C\[C@H](C)[C@H](O)[C@@H](C)[C@@H](O)[C@@H](C)[C@H](OC(C)=O)[C@@H]1C [Rifampicin], the IC50 [11] was over 100 µg/mL.

In the case of “Park’s nucleotide-N^ε-C6-dansylthiourea [Compound 1e]”, the “kcat of HyMraY for 1e” value [12] is reported as 0.38 s⁻¹.

With O=C(NC(=O)c1ccccc1Cl)Nc1ccc(OC(F)(F)F)cc1 [Triflumuron, triflumuron] the “Inhibition of MurG function / lipid II formation” value [1] was “did not inhibit”, the inhibition at 10 µM [1] was 0% and the inhibition at 50 µM [1] was 0%. For the same compound, the inhibition at 100 µM [1] was 0%, the inhibition at 10 µM [2] was 0% and the inhibition at 50 µM [2] was 0%. It also gave an inhibition at 100 µM [2] of 0%, an IC50 [6] of over 100 µM and an IC50 [3] of over 100 µM. The IC50 [4] was over 100 µM.

In the case of NNC(=O)c1ccncc1 [INH], the “M. smegmatis (ATCC607) MIC” value [7] is reported as 0.78 µg/mL, the “M. tuberculosis (H37Rv) MIC” value [8] is reported as 0.16 µg/mL and the “Vero cell cytotoxicity IC50” value [10] is reported as over 100 µg/mL.

With CC(=O)N[C@H]1[C@@H](OP(=O)(O)OP(=O)(O)OC[C@H]2O[C@@H](n3ccc(=O)[nH]c3=O)[C@H](O)[C@@H]2O)O[C@H](CO)[C@@H](O)[C@@H]1O [UDP-GlcNAc] the IC50 [13] was 8.4 µM and the “UDP-GlcNAc required for 100%-disappearance of 9-C55” value ([13]; 8 at 375 μM) was over 200 µM.

In the case of ristocetin A, the IC50 [6] is reported as 0.96 µM, the IC50 [3, 16] is reported as 1.4 µM and the “Mode of MurX inhibition” value [4] is reported as “non-competitive inhibition against Park’s nucleotide and prenyl-P”. For the same compound, the IC50 [4, 17] was 0.81 µM, the “M. smegmatis (ATCC607) MIC” value [7] was under 0.39 µg/mL and the “M. tuberculosis (H37Rv) MIC” value [8] was 0.5 µg/mL. For the same compound, the “Mode of HyMurG inhibition” value [14] was “competes for the UDP-GlcNAc binding-site”, the “Vero cell cytotoxicity IC50” value [10] was over 100 µg/mL and the “Binding affinity, times less than that of vancomycin” value [15] was “about 3.0 times”.
